Measurements published in patent US20070111251A1, “Chemical address tags” (priority 2003, published 2007).

How the values were obtained:
mitochondria = assay: QSLR factorial logistic regression of mitochondrial localization (affinity coefficients, cross-validated prediction); design: species or system human; settings: for αi^mito: influence of A group on mitochondrial localization, greater = stronger; for estimated A group affinity coefficient ai: mitochondrial affinity, ±5 for groups always or never mitochondrial
Source text: The first column and first row contain the A group and B group labels. The second column and second row contain the estimated A group and B group affinity coefficients (ai and bj respectively). The interior of the table contains the value sij=ai+bj for each compound (where positive values of sij indicate predicted localization to mitochondria, and negative values of sij indicate predicted localization to a non-mitochondrial compartment). The subscript m indicates experimentally determined mitochondrial localization. The subscript o indicates experimentally determined non-mitochondrial localization. The darkened boxes indicate correctly predicted mitochondrial localizations under cross-validation.
Based on this matrix, factorial logistic regression (See, A. Agresti, Categorical Data Analysis, Wiley [2002]) was used to calculate mitochondrial affinity coefficients (ai and bj) for each A and B moiety. (Table 1). Since it is not necessary to observe all possible pairings between A and B building blocks to estimate the affinity coefficients, the QSLR approach can predict localization of unmeasured styryl molecules based on a minimal set of experimentally-determined localizations (see Methods). The methods of the present invention allow assessment of predictivity using the cross-validation technique by holding out one compound and fitting the affinity coefficients using the remaining compounds, predictivity can be assessed by comparing the actual localization of the held-out compound to its predicted localization. Repeating this for every measured compound in the library yields an error rate for the procedure.
Briefly, this technique assigns quantitative scores to each A group (αi^mito) and to each B group (βj^mito), in such a way that αi^mito+βj^mito is positive for compounds with mitochondrial localization, and is negative for compounds lacking mitochondrial localization. […] In additional embodiments, same analysis can be applied to organelles other than mitochondria, provided there are a sufficient number of localizations to specific non-mitochondrial organelles in the combinatorial library of interest for reliable statistical calculations.
In certain embodiments, the predictive performance of the above method was assessed using a cross-validation approach by calculating the proportion of all compounds that are correctly predicted. For cross-validation, each styryl product was set aside in sequence, and the factorial logistic model was fit to the remaining data. Then the resulting A and B scores for the held-out compound were summed. If the sum was positive, the held-out compound was predicted to be mitochondrial, while if the sum was negative, the held-out compound was predicted to be non-mitochondrial. […] The baseline performance of the method scored 104 correct out of 145, or 72%. This number is highly statistically significant compared to random guessing (p-value ˜10^−7). Thus, across the entire library, A and B moieties appear to contribute to localization in an independent, additive fashion.
In some embodiments, subcellular localization data were converted to binary (0/1) values by assigning a value Gij=1 if compound i,j localized to mitochondria (even if it localized to other […] as well), and assigning Gij=0 if compound i,j localized exclusively to any non-mitochondrial cellular structure. Compounds with no localization were omitted from this part of the analysis. The αi and βj coefficients for A or B groups that are always observed to localize to mitochondria, or that never localize to mitochondria, were set to +/−5, respectively. The binary localization data were analyzed using factorial logistic regression. […]

[1] = Additive decomposition of peak excitation and emission wavelengths (model coefficients of A and B groups); settings: A group 1 as baseline; for αi^em: influence of A group on peak emission wavelength; for αi^ex: influence of A group on peak excitation wavelength
Source text: The chemical structure of the styryl library is illustrated in FIG. 3. […] Initial analysis focused on measurements of peak emission and excitation wavelength obtained for all styryl products showing a single, localized peak (there were 256 such compounds for emission wavelength, and 193 compounds for excitation wavelength). […] The wavelength for the styryl compound formed by joining A group i with B group j is denoted as λij (or more specifically, λij^ex for excitation wavelength and λij^em for emission wavelength). The additive model λij=ai+βj+εij was fit to the data using least squares yielding parameters αi^ex, αi^em, βj^ex, and βj^em that quantify the influence of each A and B group on the spectrum of the styryl product. […] (FIGS. 8A-8B). […] The predictions were made ignoring interactions between the two functional moieties in the styryl compound. The predicted values were obtained without bias, by holding out the data point to be predicted when training the model.
In preferred embodiments, using the cross-validation approach disclosed herein, each compound was held out in sequence, the model was trained using the remaining compounds, then the wavelength value for the held-out compound was predicted based on the resulting fitted model. This process produced correlations between measured and predicted values of ρ^em=0.78 (emission) and ρ^ex=0.69 (excitation).
Based on this analysis, the contribution of the A and B functional groups to the fluorescence of the styryl product is quantified using the fitted coefficients αi^ex, βj^ex, […], and βj^em. Since these coefficients are on a scale without origin, in some embodiments, the invention uses the first A group and B group as a baseline, so […], β1^ex=0, and so on. Table 3 contains the model coefficients of all A and B groups for peak excitation and emission wavelength.
Greater values of αi^ex, αi^em, βj^ex, and βj^em indicate greater peak wavelength. Greater values of αi^mito and […] indicate stronger mitochondrial localization. A groups 40 and 41 were not screened for localization. A groups 2, 29, and 33 only formed fluorescent products with a single B group, so were not included in the spectral analysis.
In some embodiments, the wavelength values for peak excitation and emission were fit to the additive model λij=αi+βj+εij, where εij denotes error that is made as small as possible in the fitting process. Using least squares to minimize the function [formula] over all compounds having experimental data yields coefficient estimates αi for each A group and βj for each B group. One set of coefficient estimates is obtained for the excitation values and another set is obtained for the emission values. To predict the wavelength of a new compound formed from A and B groups i* and j* the sum αi*+βj* is used.
In some embodiments, for both the spectral and localization analysis, cross-validation was used to obtain unbiased estimates of the prediction performance. Each compound was held out in sequence, and the coefficients αi and βj were fit to the remaining compounds. These values were then used to form a prediction for the held out compound, then the predicted and experimental values were compared to obtain a measure of the accuracy of prediction. Since the wavelength values are on a continuous scale, the predicted values were compared to the experimental values using Pearson correlation coefficients. The localization values are dichotomous, so the proportion of matching predictions was used to compare predicted and experimental localization values.

HeLa cells = assay: Kinetic imaging of NBD-triazine probe uptake and sequestration, fitted to nested two-compartment transport model; assay type: cell-based; settings: median over optimal solutions within 5% of the best fit
Protocol: In living cells, image data was simultaneously acquired with an automated, high-content, kinetic screening instrument equipped with an environmental chamber (see, e.g., V. C. Abraham, D. L. Taylor and J. R. Haskins, Trends in Biotechnology 22, 15 (2004); herein incorporated by reference in its entirety), as cells were incubated with the fluorescent molecules and after removal of extracellular probe. Data was analyzed off line, using an image analysis algorithm to measure the statistical pixel intensity distribution associated with fluorescence probe sequestration in the perinuclear region (see, e.g., FIG. 21; see also, e.g., G. J. Ding et al., Journal of Biological Chemistry 273, 28897 (1998); herein incorporated by reference in its entirety). Data was parametrized with a nested, two-compartment, transport model (see, e.g., W. E. Evans, J. J. Schentag and W. J. Jusko., Applied Pharmacokinetics: Principles of Therapeutic Drug Monitoring (Lippincott Williams & Wilkins, Vancouver, W.A., 1992); herein incorporated by reference in its entirety), using a statistical link function to relate the kinetic coefficient of variation (CV) of pixel intensities in the images with the concentration of probe in vesicles and cytoplasm. Optimal kinetic parameters fitting the experimental data for each probe to the system described by the two-compartment model and statistical link function were determined using the simulated annealing technique (see, e.g., M. Pincus., Oper. Res. 18, 1225 (1979); herein incorporated by reference in its entirety). The present invention is not limited to a particular mechanism. Indeed, an understanding of the mechanism is not necessary to practice the present invention.
To assess how well the model accounts for all the different kinetic traces acquired, a “PVE” (proportion of variance explained) by the model was calculated. The PVE is one minus the ratio of the sum of squared differences between observed and fitted values to the sum of squared differences between observed values and their mean. PVE values close to one indicate good fit to the nested two-compartment model. The average PVE across the probes was 0.92, with >50% of the probes yielded PVE values […]. The present invention is not limited to a particular mechanism. Indeed, an understanding of the mechanism is not necessary to practice the present invention.
Cell culture. HeLa cells were grown in RPMI+10% FCS in a 5% CO2 atmosphere at 37° C. and plated in 96-well plates at a density of 3000 cells/well 24 hours prior to the start of the experiment.
Kinetic Imaging. For influx experiments, cells on 96-well plates were switched to imaging media consisting of RPMI containing 1.0 mM Bromophenol Blue—a soluble, cell-impermeant chromophore used to suppress excitation and emission of extracellular (background) dye fluorescence-, 10 μM probe and 0.1 μM Hoescht 33258 to label the cell nuclei. Plates were then transferred to a KineticScan instrument (Cellomics, Inc., Pittsburgh, Pa.), which contains an environmentally controlled CO2/temperature/humidity chamber, and data was acquired with a 20× objective lens. Images acquisition began approximately 10 min after dye addition, using the Hoescht channel to acquire nuclear images and FITC channel to acquire the NBD image. Plate-scanning mode was used for scanning, in which the instrument builds time-stacks of images by scanning the plate multiple times, returning to the same site of the plate at every scan. For efflux experiments, dye-containing media was removed from the wells of the plate. The wells were washed twice with fresh RPMI medium, imaging media was added, and image acquisition restarted 7 min after the dye-containing media was removed. The last time points of the influx experiment served as the first time point of the efflux experiment. Plates were scanned for approximately two hours in the influx experiment and six hours for the efflux experiment, with each well imaged on average every 7 minutes. […]

| SMILES | αi^em [1] | αi^ex [1] | median Pap(cyto) (apparent partition coefficient between extracellular medium and cytosol) (HeLa cells) | median Pap(ves) (apparent partition coefficient between cytosol and intracellular vesicles, k(ves)in/k(ves)out) (HeLa cells) | αi^mito (mitochondria) | estimated A group affinity coefficient ai (mitochondria) |
| --- | --- | --- | --- | --- | --- | --- |
| O=CCc1ccccc1 [A group 1] | 0.0 nm | 0.0 nm | – | – | −0.2 | −0.2 |
| O=Cc1ccccc1 [A group 2] | – | – | – | – | 5.0 | 5.0 |
| O=Cc1ccccc1Br [A group 3] | 46.3 nm | 35.7 nm | – | – | 5.0 | 5.0 |
| O=Cc1cccc(Br)c1 [A group 4] | 23.5 nm | −34.0 nm | – | – | −5.0 | −5.0 |
| O=Cc1ccc(Br)cc1 [A group 5] | 26.7 nm | −32.3 nm | – | – | 5.0 | 5.0 |
| O=Cc1ccc(Cl)cc1 [A group 6] | −9.5 nm | 4.9 nm | – | – | 5.0 | 5.0 |
| O=Cc1ccccn1 [A group 40] | 64.8 nm | −18.1 nm | – | – | – | – |
| O=Cc1ccc2ccc3cccc4ccc1c2c34 [A group 41] | 46.9 nm | 26.1 nm | – | – | – | – |

The next lines start with results.

| αi^em [1] | αi^ex [1] | median Pap(cyto) (apparent partition coefficient between extracellular medium and cytosol) (HeLa cells) | median Pap(ves) (apparent partition coefficient between cytosol and intracellular vesicles, k(ves)in/k(ves)out) (HeLa cells) | SMILES | αi^mito (mitochondria) | estimated A group affinity coefficient ai (mitochondria) |
| --- | --- | --- | --- | --- | --- | --- |
| – | – | 6.63 | 29.18 | Cc1ccc(CNc2nc(NCCCCCCNc3ccc([N+](=O)[O-])c4nonc34)nc(NC3CCCCC3)n2)cc1 [Compound G7] | – | – |
| – | – | 8.29 | 24.73 | Cc1ccc(CNc2nc(NCCCCCCNc3ccc([N+](=O)[O-])c4nonc34)nc(NCCC(C)C)n2)cc1 [Compound G8] | – | – |
| – | – | 267.03 | 0.20 | Cc1ccc(CNc2nc(NCCCCCCNc3ccc([N+](=O)[O-])c4nonc34)nc(NCCc3ccccn3)n2)cc1 [Compound G9] | – | – |
| – | – | 161.46 | 0.42 | CCCCNc1nc(NCCCCCCNc2ccc([N+](=O)[O-])c3nonc23)nc(NCc2cccc(OC)c2OC)n1 [Compound H1] | – | – |
| – | – | 10.30 | 9.91 | COc1cccc(CNc2nc(NCCCCCCNc3ccc([N+](=O)[O-])c4nonc34)nc(NC(C)C)n2)c1OC [Compound H2] | – | – |
| – | – | 7.51 | 14.91 | CCCCCCCCNc1nc(NCCCCCCNc2ccc([N+](=O)[O-])c3nonc23)nc(NCc2cccc(OC)c2OC)n1 [Compound H3] | – | – |
| – | – | 5.12 | 16.80 | COc1cccc(CNc2nc(NCCCCCCNc3ccc([N+](=O)[O-])c4nonc34)nc(NC3CCCCC3C)n2)c1OC (centres unmarked) [Compound H5] | – | – |
| – | – | 8.77 | 22.55 | COc1cccc(CNc2nc(NCCCCCCNc3ccc([N+](=O)[O-])c4nonc34)nc(NCC3CCCCC3)n2)c1OC [Compound H6] | – | – |
| – | – | 12.95 | 15.10 | COc1cccc(CNc2nc(NCCCCCCNc3ccc([N+](=O)[O-])c4nonc34)nc(NCCC(C)C)n2)c1OC [Compound H8] | – | – |
